According to patent publication US8252737B2, “Antimicrobial peptides and methods of use” (priority 2004, dated 2012):
Converted amounts (≈) assume the structure as drawn. Like-named read-outs stand apart in the source and are kept apart here. Square brackets hold non-standard residues; d marks the D form. Peptide text beside a SMILES is read from it.

How the values were obtained:
[1] = Circular dichroism spectroscopy of helical structure (benign buffer and 50% TFE); assay type: physicochemical
Summary of the method: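 Peptide CD spectra at 25 °C, 190–250 nm, in benign buffer (50 mM KH2PO4/K2HPO4, 100 mM KCl, pH 7) and in the same buffer with 50% TFE. Samples were a 10-fold dilution of ~500 μM stock. Mean residue molar ellipticity at 222 nm gave relative α-helicity.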

human erythrocytes [2] = assay: Hemolytic activity (MHC), Protocol A, 12 hours; conditions: for minimal hemolytic concentration (MHC): incubation for 12 hours at 37° C. (Tables 7 and 8)
Protocol: Measurement of Hemolytic Activity—Protocol A: Peptide samples were added to 1% human erythrocytes in phosphate buffered saline (0.08M NaCl; 0.043M Na2PO4; 0.011M KH2PO4) and reactions were incubated at 37° C. for 12 hours in microtiter plates. Peptide samples were diluted 2 fold in order to determine the concentration that produced no hemolysis. […] Hemoglobin release was determined spectrophotometrically at 562 nm. The hemolytic titer was the highest 2-fold dilution of the peptide that still caused release of hemoglobin from erythrocytes. The control for no release of hemoglobin was a sample of 1% erythrocytes without any peptide added. […] Peptide samples were diluted 2 fold in order to determine the concentration that produced no hemolysis. […] Hemoglobin release was determined spectrophotometrically at 570 nm. The hemolytic titer was the highest 2-fold dilution of the peptide that still caused release of hemoglobin from erythrocytes. The control for no release of hemoglobin was a sample of 1% erythrocytes without any peptide added.

human erythrocytes [3] = assay: Hemolytic activity (MHC), Protocol B, 18 hours; conditions: for MHC (μg/ml) hRBC: maximal peptide concentration with no hemolysis after 18 hours
Summary of the method: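 Hemolysis of 1% human erythrocytes in phosphate-buffered saline by 2-fold diluted D-peptides, incubated 18 h at 37 °C; hemoglobin release read spectrophotometrically. Value is the maximal peptide concentration producing no hemolysis, relative to erythrocytes without peptide.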

[4] = Protocol: (§1) The geometric mean MIC values from 6 microbial strains in this table were calculated to provide an overall evaluation of antimicrobial activity against gram-negative bacteria.
(§2) Measurement of Antimicrobial Activity—Minimal inhibitory concentrations (MICs) were determined using a standard microtiter dilution method in LB (Luria-Bertani) no-salt medium (10 g of tryptone and 5 g of yeast extract per liter). Briefly, cells were grown overnight at 37° C. in LB and diluted in the same medium. […] Plates were incubated at 37° C. for 24 hours and MICs determined as the lowest peptide concentration that inhibited growth. Alternatively, minimal inhibitory concentrations were determined using a standard microtiter dilution method in a Mueller-Hinton (MH) medium. Briefly, cells were grown overnight at 37° C. in MH broth and diluted in the same medium. […] Plates were incubated at 37° C. for 24 hours and MICs determined as the lowest peptide concentration that inhibited growth. However, for MIC determination of Pseudomonas aeruginosa clinical isolates, brain heart infusion (BH1) medium was used instead of MH broth. In addition, the bacteria were diluted to a final inoculum of 1×10^6 colony-forming units/ml.

[5] = system: E. coli (UB 1005 wt and DC2 abs); conditions: for MIC (μg/ml) E. coli C500 abs: antibiotic sensitive strain; for MIC (μg/ml) E. coli C498 wt: wild-type lab strain
Protocol: as §1, §2

P. aeruginosa H187 wt = system: P. aeruginosa H187 wt
Protocol: as §1, §2

S. typhimurium C610 abs = system: S. typhimurium C610 abs
Protocol: as §1, §2

gram-positive bacteria = system: gram-positive bacteria
Protocol: as §2

[6] = system: Staphylococcus epidermidis
[7] = 5° C., 100 mM KCl, 50 mM PO4 pH 7.4
[8] = 5° C., relative to D-V681 in 50% TFE
[9] = 5° C., benign buffer pH 7.4 containing 50% TFE
[10] = 5° C., pH 7.4 benign, relative to D-V681 in 50% TFE
[11] = 25° C., relative to NAL in 50% TFE
[12] = 25° C., benign buffer (100 mM KCl, 50 mM PO4 pH 7.0)
[13] = 25° C., benign buffer diluted 1:1 (v/v) with TFE
[14] = 25° C., benign buffer, relative to NAL in 50% TFE
[15] = maximal peptide concentration producing no hemolysis after 18 hours, 37° C.
[16] = minimal hemolytic concentration on human red blood cells (hRBC), Table 9

Row | Molecule | [θ]222 Benign [1, 7] [deg · cm^2 · dmol^−1] | % helix 50% TFE [1, 8] [%] | [θ]222 50% TFE [1, 9] [deg · cm^2 · dmol^−1] | % helix Benign [1, 10] [%] | % helix 50% TFE [1, 11] [%] | [θ]222 Benign [1, 12] | [θ]222 50% TFE [1, 13] | % helix Benign [1, 14] [%] | Hemolytic activity MHC (human erythrocytes [3]; [15]) [µg/mL] | MHC (μg/ml) hRBC (human erythrocytes [3]; Table 11) [µg/mL] | MHC (μg/ml) hRBC (human erythrocytes [3]; Table 12) [µg/mL] | MIC (μg/ml) E. coli C500 abs [5] [µg/mL] | MIC (μg/ml) E. coli C498 wt [5] [µg/mL] | MIC (μg/ml) S. epidermidis C621 wt [6] [µg/mL] | minimal hemolytic concentration (MHC) (human erythrocytes [2]) [µg/mL] | MHC (human erythrocytes [2]; [16]) [µg/mL] | MIC (μg/ml) Gram-positive (gram-positive bacteria) [µg/mL] | MHC (human erythrocytes [2]) [µg/mL] | also measured
1 | CC[C@H](C)[C@H](NC(=O)[C@H](C)NC(=O)[C@H](CCCCN)NC(=O)[C@H](CC(C)C)NC(=O)[C@H](C)NC(=O)[C@@H](NC(=O)[C@H](Cc1cnc[nH]1)NC(=O)[C@H](CC(C)C)NC(=O)[C@@H](NC(=O)[C@@H](NC(=O)[C@H](CCCCN)NC(=O)[C@H](CCCCN)NC(=O)[C@H](C)NC(=O)[C@H](CO)NC(=O)[C@H](CCCCN)NC(=O)[C@H](Cc1ccccc1)NC(=O)[C@@H](NC(=O)[C@H](CCCCN)NC(=O)[C@H](CC(C)C)NC(=O)[C@H](Cc1ccccc1)NC(=O)[C@H](CO)NC(=O)[C@H](CCCCN)NC(=O)[C@H](Cc1c[nH]c2ccccc12)NC(=O)[C@H](CCCCN)NC(C)=O)[C@@H](C)O)[C@@H](C)O)C(C)C)[C@@H](C)O)C(=O)N[C@@H](CO)C(=O)N[C@@H](CO)C(N)=O [NKL] | −1400 | 96 | −27000 | 5 | 91 | −1,450 deg · cm^2 · dmol^−1 | −26,250 deg · cm^2 · dmol^−1 | 5 | 250.0 | 250.0 | 250.0 | 3.1 (≈ 1.04 µM) | 3.1 (≈ 1.04 µM) | 6.3 (≈ 2.11 µM) | – | – | – | – | fold decrease in hemolytic activity compared to V681 (human erythrocytes [2]; 12 hours): > 32; Hemolytic activity Fold (human erythrocytes [3]; fold decrease in hemolytic activity compared to V681, 18 hours): 32; Hemolytic activity MHC (human erythrocytes [3]; maximal peptide concentration showing no hemolysis after 18 hours, hRBC, Table 14): 250.0 µg/mL; MIC (μg/ml) St C587 wt ([4]; Salmonella typhimurium wild-type lab strain): 6.3 µg/mL (≈ 2.11 µM); MIC (μg/ml) Pa H188 abs (P. aeruginosa H187 wt; Pseudomonas aeruginosa antibiotic sensitive strain): 3.1 µg/mL (≈ 1.04 µM); MIC (μg/ml) Pa H187 wt (P. aeruginosa H187 wt; Pseudomonas aeruginosa wild-type lab strain): 6.3 µg/mL (≈ 2.11 µM); MIC (μg/ml) St C610 abs (S. typhimurium C610 abs; Salmonella typhimurium antibiotic sensitive strain): 3.1 µg/mL (≈ 1.04 µM); MIC (μg/ml) GM (gram-positive bacteria; geometric mean of MIC values from all 6 gram-positive strains of Table 12): 7.9 µg/mL (≈ 2.64 µM)
2 | CC[C@H](C)[C@H](NC(=O)[C@H](C)NC(=O)[C@H](CCCCN)NC(=O)[C@H](CC(C)C)NC(=O)[C@H](C)NC(=O)[C@@H](NC(=O)[C@H](Cc1c[nH]cn1)NC(=O)[C@H](CC(C)C)NC(=O)[C@@H](NC(=O)[C@@H](NC(=O)[C@H](CCCCN)NC(=O)[C@@H](NC(=O)[C@H](C)NC(=O)[C@H](CO)NC(=O)[C@H](CCCCN)NC(=O)[C@H](Cc1ccccc1)NC(=O)[C@@H](NC(=O)[C@H](CCCCN)NC(=O)[C@H](CC(C)C)NC(=O)[C@H](Cc1ccccc1)NC(=O)[C@H](CO)NC(=O)[C@H](CCCCN)NC(=O)[C@H](Cc1c[nH]c2ccccc12)NC(=O)[C@H](CCCCN)NC(C)=O)[C@@H](C)O)C(C)C)[C@@H](C)O)C(C)C)[C@@H](C)O)C(=O)N[C@@H](CO)C(=O)N[C@@H](CO)C(N)=O [Peptide V681, reference compound] | −13000 | 99 | −27950 | 46 | 94 | −12,900 deg · cm^2 · dmol^−1 | −27,300 deg · cm^2 · dmol^−1 | 45 | 7.8 | 7.8 | 7.8 | 3.1 (≈ 1.05 µM) | 6.3 (≈ 2.13 µM) | 6.3 (≈ 2.13 µM) | 15.6 | 15.6 | 6.3 (≈ 2.13 µM) | – | MIC (μg/ml) St C587 wt ([4]; C610 abs): 12.5 µg/mL (≈ 4.22 µM); MIC (μg/ml) Pa H188 abs (P. aeruginosa H187 wt): 3.1 µg/mL (≈ 1.05 µM); MIC (μg/ml) Pa H187 wt (P. aeruginosa H187 wt; H187 wt): 6.3 µg/mL (≈ 2.13 µM); MIC (μg/ml) St C610 abs (S. typhimurium C610 abs; C610 abs): 3.1 µg/mL (≈ 1.05 µM); MIC (μg/ml) GM (gram-positive bacteria): 4.4 µg/mL (≈ 1.49 µM); geometric mean MIC against gram-positive bacteria (gram-positive bacteria): 6.3 µg/mL
3 | Ac-KWKSFLKTFKSASKTVLHTALKAISS-NH2 [NSL] | – | – | – | – | 95 | −1,300 deg · cm^2 · dmol^−1 | −27,550 deg · cm^2 · dmol^−1 | 4 | – | – | – | – | – | – | 125 | 125.0 | 7.4 | – | –
4 | CC[C@H](C)[C@H](NC(=O)[C@H](C)NC(=O)[C@H](CCCCN)NC(=O)[C@H](CC(C)C)NC(=O)[C@H](C)NC(=O)[C@@H](NC(=O)[C@H](Cc1c[nH]cn1)NC(=O)[C@H](CC(C)C)NC(=O)[C@@H](NC(=O)[C@@H](NC(=O)[C@H](CCCCN)NC(=O)[C@@H](NC(=O)[C@H](C)NC(=O)[C@@H](C)NC(=O)[C@H](CCCCN)NC(=O)[C@H](Cc1ccccc1)NC(=O)[C@@H](NC(=O)[C@H](CCCCN)NC(=O)[C@H](CC(C)C)NC(=O)[C@H](Cc1ccccc1)NC(=O)[C@H](CO)NC(=O)[C@H](CCCCN)NC(=O)[C@H](Cc1c[nH]c2ccccc12)NC(=O)[C@H](CCCCN)NC(C)=O)[C@@H](C)O)C(C)C)[C@@H](C)O)C(C)C)[C@@H](C)O)C(=O)N[C@@H](CO)C(=O)N[C@@H](CO)C(N)=O [PAD] (Ac-KWKSFLKTFK[dA]AVKTVLHTALKAISS-NH2) | – | – | – | – | 94 | −3,050 deg · cm^2 · dmol^−1 | −27,300 deg · cm^2 · dmol^−1 | 11 | – | – | – | – | – | – | – | – | 3.8 (≈ 1.29 µM) | 15.6 | –
5 | CC[C@H](C)[C@H](NC(=O)[C@H](C)NC(=O)[C@H](CCCCN)NC(=O)[C@H](CC(C)C)NC(=O)[C@H](C)NC(=O)[C@@H](NC(=O)[C@H](Cc1c[nH]cn1)NC(=O)[C@H](CC(C)C)NC(=O)[C@@H](NC(=O)[C@@H](NC(=O)[C@H](CCCCN)NC(=O)[C@@H](NC(=O)[C@H](C)NC(=O)[C@@H](CCCCN)NC(=O)[C@H](CCCCN)NC(=O)[C@H](Cc1ccccc1)NC(=O)[C@@H](NC(=O)[C@H](CCCCN)NC(=O)[C@H](CC(C)C)NC(=O)[C@H](Cc1ccccc1)NC(=O)[C@H](CO)NC(=O)[C@H](CCCCN)NC(=O)[C@H](Cc1c[nH]c2ccccc12)NC(=O)[C@H](CCCCN)NC(C)=O)[C@@H](C)O)C(C)C)[C@@H](C)O)C(C)C)[C@@H](C)O)C(=O)N[C@@H](CO)C(=O)N[C@@H](CO)C(N)=O [PKD] (Ac-KWKSFLKTFK[dK]AVKTVLHTALKAISS-NH2) | – | – | – | – | 96 | −2,500 deg · cm^2 · dmol^−1 | −27,800 deg · cm^2 · dmol^−1 | 9 | – | – | – | – | – | – | – | – | 2.8 (≈ 0.932 µM) | 31.2 | –
6 | CC[C@H](C)[C@H](NC(=O)[C@H](C)NC(=O)[C@H](CCCCN)NC(=O)[C@H](CC(C)C)NC(=O)[C@H](C)NC(=O)[C@@H](NC(=O)[C@H](Cc1c[nH]cn1)NC(=O)[C@H](CC(C)C)NC(=O)[C@@H](NC(=O)[C@@H](NC(=O)[C@H](CCCCN)NC(=O)[C@@H](NC(=O)[C@H](C)NC(=O)[C@@H](CO)NC(=O)[C@H](CCCCN)NC(=O)[C@H](Cc1ccccc1)NC(=O)[C@@H](NC(=O)[C@H](CCCCN)NC(=O)[C@H](CC(C)C)NC(=O)[C@H](Cc1ccccc1)NC(=O)[C@H](CO)NC(=O)[C@H](CCCCN)NC(=O)[C@H](Cc1c[nH]c2ccccc12)NC(=O)[C@H](CCCCN)NC(C)=O)[C@@H](C)O)C(C)C)[C@@H](C)O)C(C)C)[C@@H](C)O)C(=O)N[C@@H](CO)C(=O)N[C@@H](CO)C(N)=O [PSD] | – | – | – | – | 90 | −2,800 deg · cm^2 · dmol^−1 | −26,000 deg · cm^2 · dmol^−1 | 10 | – | – | – | – | – | – | – | 15.6 | – | – | geometric mean MIC against gram-positive bacteria (gram-positive bacteria; Table 8): 2.3 µg/mL; MIC (μg/ml) Gram-positive (gram-positive bacteria; geometric mean MIC, Table 9): 2.3 µg/mL (≈ 0.777 µM); fold improvement in antimicrobial activity compared to V681 (gram-positive bacteria; gram-positive bacteria, geometric mean MIC, Table 8): 2.7
